pEC50: −log10 of the molar value. Counter-ions that a name gives are not always drawn. Like-named read-outs stand apart in the source and are kept apart here.
Columns and labels:
Test in all cases: microbe, parasite or virus in culture
Format in all cases: cell-based
vaccinia virus = details: Orthopoxvirus vaccinia, read-out: Avg Activity (VV)
La Crosse virus (LACV) = details: La Crosse virus, Vero
Chlamydophila caviae = details: Chlamydia caviae, Vero, read-out: Avg Activity (C. Caviae)
influenza virus = details: unidentified influenza virus
dengue virus = system: dengue virus
Tacaribe virus = details: Mammarenavirus tacaribeense, Vero
Ebola virus = details: Zaire ebolavirus
[1] = system: Rift Valley fever virus (RVFV) vaccine strain MP-12; details: Vero
[2] = system: lymphocytic choriomeningitis virus; details: for pEC50: Mammarenavirus choriomeningitidis, read-out: Misc Virus Activity: Lymphocytic Choriomeningitis
Andes virus = system: Andes virus
Sindbis virus = details: read-out: Misc Virus Activity: Sindbis
[3] = system: encephalomyocarditis virus; details: Cardiovirus A, read-out: Misc Virus Activity: Encephalomyocarditis
[4] = system: respiratory syncytial virus; details: human respiratory syncytial virus, read-out: Misc Virus Activity: Respiratory Syncytial
HIV-1 = details: Human immunodeficiency virus 1, read-out: Misc Virus Activity: HIV-1
[5] = A549, read-out: Misc Virus Activity: Influenza
[6] = read-out: Misc Virus Activity: Dengue
[7] = read-out: Misc Virus Activity: Tacaribe
[8] = read-out: Misc Virus Activity: Ebola
[9] = read-out: Misc Virus Activity: Rift Valley Fever

SMILES | pEC50 (vaccinia virus) | pEC50 (La Crosse virus (LACV); read-out: Avg Activity (LACV)) | pEC50 (Chlamydophila caviae) | pEC50 (influenza virus; [5]) | pEC50 (dengue virus; [6]) | pEC50 (Tacaribe virus; [7]) | pEC50 (Ebola virus; [8]) | pEC50 [1, 9] | Lymphocytic Choriomeningitis: reduces yield [2] | pEC50 [2] | other results
CC(C)(C)c1ccc(C(=O)NC(=S)Nc2ccc(NC(=O)c3ccccc3Cl)c(N)c2)cc1 [Compound 6, N-[2-amino-4-[(4-tert-butylbenzoyl)-carbamothioylamino]-phenyl]-2-chloro-benzamide hydrochloride] | > 6.00 | > 6.00 | > 6.00 |  |  |  |  |  |  |  | pEC50 (influenza virus; A549, read-out: Misc Activity: Influenza): > 6.00; pEC50 (dengue virus; read-out: Misc Activity: Dengue): > 6.00; pEC50 (Tacaribe virus; read-out: Misc Activity: Tacaribe): > 6.00; pEC50 (Ebola virus; read-out: Misc Activity: Ebola): 5.00 to 6.00
COc1cc(NC(=S)NC(=O)c2ccc(C(C)(C)C)cc2)ccc1NC(=O)c1ccccc1Cl [Compound 39] | > 6.00 | > 6.00 | > 6.00 | > 6.00 | > 6.00 | > 6.00 | > 6.00 | > 6.00 | (reduces yield >10^4-fold) | > 6.00 | Andes: reduces yield (Andes virus): yield >100-fold); pEC50 (Andes virus; Orthohantavirus andesense, read-out: Misc Virus Activity: Andes): > 6.00; pEC50 (Sindbis virus): > 6.00; pEC50 [3]: > 6.00; pEC50 [4]: > 6.00; pEC50 (HIV-1): > 6.00
CC(C)(C)c1ccc(C(=O)NC(=S)Nc2ccccc2Cl)cc1 [Compound 40, 4-tert-butyl-N-[(2-chlorophenyl)carbamothioyl]-benzamide] | > 6.00 | > 6.00 | > 6.00 | > 6.00 | > 6.00 | > 6.00 | 4.60 to 5.00 | > 6.00 | (reduces yield >10^4-fold) | > 6.00 | 
Cc1ccc(NC(=S)NC(=O)c2ccc(C(C)(C)C)cc2)c(C)c1 [Compound 48, 4-tert-butyl-N-[(2,4-dimethylphenyl)-carbamothioyl]benzamide] | 5.00 to 6.00 | > 6.00 | > 6.00 | 5.00 to 6.00 | > 6.00 | > 6.00 |  |  |  |  | 
CN(C)c1ccc(NC(=S)NC(=O)c2ccc(C(C)(C)C)cc2)cc1 [Compound 49, 4-tert-butyl-N-[(4-dimethylaminophenyl)-carbamothioyl]benzamide] | 5.00 to 6.00 | > 6.00 | 5.00 to 6.00 | > 6.00 | > 6.00 | > 6.00 |  |  |  |  | 
NC(=O)c1ncn([C@@H]2O[C@H](CO)[C@@H](O)[C@H]2O)n1 [ribavirin, reference compound] |  |  |  |  |  |  |  |  |  |  | pEC50 (La Crosse virus (LACV); read-out: EC50 value for LACV): 3.12; pEC50 ([1]; read-out: EC50 value for RVFV): 3.52

From patent US9566254B2, “Inhibitors and methods of inhibiting bacterial and viral pathogens” (priority 2010, dated 2017)
